{
  "source": "patent US12195427B2",
  "about": "“MASP-2 inhibitors and methods of use” (priority 2018, dated 2025)",
  "biological_target": "MASP-2 CCP2-SP (Homo sapiens (Human), UniProt O00187)",
  "sequence (O00187 445-686)": "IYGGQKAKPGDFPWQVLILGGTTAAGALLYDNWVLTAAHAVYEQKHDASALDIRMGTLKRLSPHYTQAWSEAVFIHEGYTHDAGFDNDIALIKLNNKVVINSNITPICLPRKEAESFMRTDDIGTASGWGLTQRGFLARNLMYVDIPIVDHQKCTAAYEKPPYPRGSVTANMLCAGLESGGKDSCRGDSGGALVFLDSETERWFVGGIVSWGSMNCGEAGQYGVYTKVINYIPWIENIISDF",
  "sequence (O00187 364-432 partner)": "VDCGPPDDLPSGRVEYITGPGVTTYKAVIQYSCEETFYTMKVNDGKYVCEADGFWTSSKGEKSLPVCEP",
  "assay": "MASP-2 co-crystallization, X-ray crystallography and structure analysis (H-bonds, van der Waals contacts);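 as to Ligand-pharmacophore element distance, pharmacophore element C2: distance from averaged pharmacophore element to bound ligand; missing value means element absent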;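 as to Ligand-pharmacophore element distance, pharmacophore element C3: distance from averaged pharmacophore element to bound ligand; missing value means element absent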;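 as to Ligand-pharmacophore element distance, pharmacophore element C4: distance from averaged pharmacophore element to bound ligand; missing value means element absent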;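 as to Ligand-pharmacophore element distance, pharmacophore element C5: distance from averaged pharmacophore element to bound ligand; missing value means element absent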",
  "design": "van der Waals contact distance, MASP-2 HIS 483 atom CD2 / van der Waals contact distance, MASP-2 HIS 483 atom NE2 / van der Waals contact distance, SER 654 C to compound atom / van der Waals contact distance, SER 654 O to compound atom / van der Waals contact distance, TRP 655 C to compound atom / van der Waals contact distance, MASP-2 GLY 528 atom CA / van der Waals contact distance TRP 655 atom CZ3 / van der Waals contact distance TRP 655 atom N / van der Waals contact distance TRP 655 atom CE3 / van der Waals contact distance GLY 656 atom C / van der Waals contact distance GLY 656 atom CA / van der Waals contact distance GLY 656 atom O / van der Waals contact distance, MASP-2 TYR 607 atom CD1 / van der Waals contact distance, MASP-2 PRO 606 atom O / d(C3,CA1) / d(CA1,N1)2 / d(H4,O1) / d(H4,O2) / d(O1,O2) / d(CA1,O2) / d(CA6,O1) / d(CA6,O2) / d(CA1,C5) / d(O2,H3) / d(N2,C2) / d(CA5,N2) / d(N2,C4) / d(N2,C6) / d(N2,CA3) / d(N2,O3) / d(O4,H2): unit not given beside the values",
  "conditions": "for Ligand-pharmacophore element distance, pharmacophore element C2 / Ligand-pharmacophore element distance, pharmacophore element C3 / Ligand-pharmacophore element distance, pharmacophore element C4 / Ligand-pharmacophore element distance, pharmacophore element C5 / Ligand-pharmacophore element distance, pharmacophore element C6 / Ligand-pharmacophore element distance, pharmacophore element C7 / Ligand-pharmacophore element distance, pharmacophore element CA1 / Ligand-pharmacophore element distance, pharmacophore element CA2 / Ligand-pharmacophore element distance, pharmacophore element CA3 / Ligand-pharmacophore element distance, pharmacophore element CA4 / Ligand-pharmacophore element distance, pharmacophore element CA5 / Ligand-pharmacophore element distance, pharmacophore element CA6: Table A4-1; for Pharmacophore protein distance to MET_658 (first MET_658 column) / Pharmacophore protein distance to MET_658 (second MET_658 column) / Pharmacophore protein distance to GLY_528 / Pharmacophore protein distance to PHE_529 / Pharmacophore protein distance to PRO_608 / Pharmacophore protein distance to SER_611 / Pharmacophore protein distance to TRP_655: Table A8-6, nearest protein atom in cell to the left; for Pharmacophore protein distance to MET_658 (first MET_658 column): 6th residue column; for Pharmacophore protein distance to MET_658 (second MET_658 column): 9th residue column; for Pharmacophore protein distance to TRP_655: pharmacophore elements C6, CA3, O3, H1",
  "procedure,_shortened": "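Human MASP-2 CCP2-SP, untagged or 6His-tagged, was expressed in E. coli and crystallized. Crystals were soaked with inhibitor in crystallization solution, flash-cooled in liquid nitrogen, and diffracted with synchrotron X-rays (wavelength 1.0). Structures were solved by molecular replacement from 1Q3X and partially refined.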",
  "key": {"[1]": {"conditions": "Table A5-1 pharmacophore: distance between elements, S2/S1 region"}, "[2]": {"conditions": "Table A5-2 pharmacophore distance, S3/S4 region"}, "[3]": {"conditions": "Table A7-1, between pharmacophore elements of the bound compound"}, "[4]": {"conditions": "Table A7-2, between pharmacophore elements of the bound compound"}},
  "data": [
    {"compound": "C[C@H](NC(=O)[C@H]1Cc2c([nH]c3ccccc23)CN1)C(=O)NCc1ccc(C(=N)N)cc1.Cl.Cl", "note": "[1097_2]", "values": [
      {"measurement": "Ligand-pharmacophore element distance, pharmacophore element C2", "value": 0.72},
      {"measurement": "Ligand-pharmacophore element distance, pharmacophore element C3", "value": 0},
      {"measurement": "Ligand-pharmacophore element distance, pharmacophore element C4", "value": 0},
      {"measurement": "Ligand-pharmacophore element distance, pharmacophore element C5", "value": 0},
      {"measurement": "Ligand-pharmacophore element distance, pharmacophore element C6", "value": 0},
      {"measurement": "Ligand-pharmacophore element distance, pharmacophore element C7", "value": 0},
      {"measurement": "Ligand-pharmacophore element distance, pharmacophore element CA1", "value": 0.32},
      {"measurement": "Ligand-pharmacophore element distance, pharmacophore element CA2", "value": 0},
      {"measurement": "Ligand-pharmacophore element distance, pharmacophore element CA3", "value": 0},
      {"measurement": "Ligand-pharmacophore element distance, pharmacophore element CA4", "value": 0},
      {"measurement": "Ligand-pharmacophore element distance, pharmacophore element CA5", "value": 1.1},
      {"measurement": "Ligand-pharmacophore element distance, pharmacophore element CA6", "value": 0},
      {"measurement": "d(CA1,N1)", "setting": "[1]", "value": 3.52},
      {"measurement": "d(CA1,O1)", "setting": "[1]", "value": 4.35},
      {"measurement": "d(CA1,O2)", "setting": "[1]", "value": 4.09},
      {"measurement": "d(H4,O1)", "setting": "[1]", "value": 4.74},
      {"measurement": "d(H4,O2)", "setting": "[1]", "value": 4.28},
      {"measurement": "d(O1,O2)", "setting": "[1]", "value": 3.33},
      {"measurement": "d(CA5,N2)", "setting": "[2]", "value": 4.50},
      {"measurement": "d(N2,C2)", "setting": "[2]", "value": 1.42},
      {"measurement": "d(O2,H3)", "setting": "[2]", "value": 4.29},
      {"measurement": "d(O2,N2)", "setting": "[2]", "value": 2.81},
      {"measurement": "a(CA1, O1, O2)", "setting": "Table A6-1 pharmacophore angle", "value": 109.11},
      {"measurement": "a(O1, O2, H4)", "setting": "Table A6-1 pharmacophore angle", "value": 137.06},
      {"measurement": "A(N1, CA1, O1) a)", "setting": "Table A6-1 pharmacophore angle, all compounds with protonatable center N1 except Methyl-amino-pyridine", "value": 163.92},
      {"measurement": "a(O1, O2, H3)", "setting": "Table A6-2 pharmacophore angle", "value": 153.30},
      {"measurement": "a(O1, O2, N2)", "setting": "Table A6-2 pharmacophore angle", "value": 137.12},
      {"measurement": "a(O2, N2, C2)", "setting": "Table A6-2 pharmacophore angle", "value": 128.45},
      {"measurement": "Pharmacophore torsion angle a(H4, O1, O2, H3)", "setting": "[3]", "value": 91.00},
      {"measurement": "Pharmacophore torsion angle a(H4, O1, O2, N2)", "setting": "[3]", "value": 129.42},
      {"measurement": "Pharmacophore torsion angle a(N1, CA1, O2, H4)", "setting": "[3]", "value": "−142.69"},
      {"measurement": "Pharmacophore torsion angle a(O1, H4, O2, CA1)", "setting": "[3]", "value": "−71.28"},
      {"measurement": "Pharmacophore torsion angle a(O1, O2, N2, C2)", "setting": "[3]", "value": 125.27},
      {"measurement": "Pharmacophore torsion angle a(O1, O2, N2, CA5)", "setting": "[4]", "value": 137.08},
      {"measurement": "Pharmacophore protein distance to MET_658 (first MET_658 column)", "value": 2.55},
      {"measurement": "Pharmacophore protein distance to MET_658 (second MET_658 column)", "value": 3.13},
      {"measurement": "Pharmacophore protein distance to GLY_528", "value": 3.52},
      {"measurement": "Pharmacophore protein distance to PHE_529", "value": 3.02},
      {"measurement": "Pharmacophore protein distance to PRO_608", "value": 3.56},
      {"measurement": "Pharmacophore protein distance to SER_611", "value": 3.29},
      {"measurement": "Pharmacophore protein distance to TRP_655", "value": 3.09}
    ]},
    {"compound": "C[C@H](NC(=O)[C@@H](CCc1ccccc1)NCCCc1ccc(O)cc1)C(=O)NCc1ccc(C(=N)N)cc1", "note": "[compound 1145]", "values": [
      {"measurement": "H-bond distance to MASP-2 GLY 656 atom N", "setting": "Table A1 (H-Bonds), GLY 656 N", "value": 3.09},
      {"measurement": "H-bond distance to MASP-2 GLY 656 atom O", "setting": "Table A1 (H-Bonds), GLY 656 O", "value": 2.58},
      {"measurement": "H-bond distance to MASP-2 SER 628 atom O", "setting": "Table A1 (H-Bonds), SER 628 O", "value": 2.84},
      {"measurement": "H-bond distance to MASP-2 SER 654 atom O", "setting": "Table A1 (H-Bonds), SER 654 O", "value": 2.84},
      {"measurement": "H-bond distance to MASP-2 SER 657 atom O", "setting": "Table A1 (H-Bonds), SER 657 O", "value": 2.81},
      {"measurement": "van der Waals contact distance, MASP-2 HIS 483 atom CD2", "setting": "Table A2-1", "value": 3.75},
      {"measurement": "van der Waals contact distance, MASP-2 PHE 529 atom CD1", "setting": "Table A2-3", "value": 3.54},
      {"measurement": "van der Waals contact distance, MASP-2 TYR 607 atom CD2", "setting": "Table A2-4", "value": 3.89},
      {"measurement": "van der Waals contact distance, VAL 653 CG1 to compound atom", "setting": "Table A2-11", "value": 3.9},
      {"measurement": "van der Waals contact distance TRP 655 atom CE3", "setting": "Table A2-13, MASP-2 TRP 655 CE3, compound atom in line below", "value": 3.49},
      {"measurement": "van der Waals contact distance TRP 655 atom N", "setting": "Table A2-13, MASP-2 TRP 655 N", "value": 3.79},
      {"measurement": "van der Waals contact distance, MASP-2 amino acid atom to compound atom", "setting": "Table A2 section before Table A2-8", "value": 3.85}
    ]},
    {"compound": "C[C@H](NC(=O)[C@H](N)CCc1ccccc1)C(=O)NCc1ccc(N)nc1.Cl.Cl", "note": "[1007_2]", "values": [
      {"measurement": "Ligand-pharmacophore element distance, pharmacophore element C2", "value": 0},
      {"measurement": "Ligand-pharmacophore element distance, pharmacophore element C3", "value": 0},
      {"measurement": "Ligand-pharmacophore element distance, pharmacophore element C4", "value": 0},
      {"measurement": "Ligand-pharmacophore element distance, pharmacophore element C5", "value": 0},
      {"measurement": "Ligand-pharmacophore element distance, pharmacophore element C6", "value": 0},
      {"measurement": "Ligand-pharmacophore element distance, pharmacophore element C7", "value": 0},
      {"measurement": "Ligand-pharmacophore element distance, pharmacophore element CA1", "value": 0.59},
      {"measurement": "Ligand-pharmacophore element distance, pharmacophore element CA2", "value": 0.86},
      {"measurement": "Ligand-pharmacophore element distance, pharmacophore element CA3", "value": 0},
      {"measurement": "Ligand-pharmacophore element distance, pharmacophore element CA4", "value": 0},
      {"measurement": "Ligand-pharmacophore element distance, pharmacophore element CA5", "value": 0},
      {"measurement": "Ligand-pharmacophore element distance, pharmacophore element CA6", "value": 0},
      {"measurement": "d(CA1,N1)2", "setting": "[1]", "value": 1.38},
      {"measurement": "d(CA1,O1)", "setting": "[1]", "value": 4.52},
      {"measurement": "d(CA1,O2)", "setting": "[1]", "value": 4.00},
      {"measurement": "d(H4,O1)", "setting": "[1]", "value": 3.69},
      {"measurement": "d(H4,O2)", "setting": "[1]", "value": 2.76},
      {"measurement": "d(O1,O2)", "setting": "[1]", "value": 3.63},
      {"measurement": "d(N2,CA2)", "setting": "[2]", "value": 6.11},
      {"measurement": "d(O2,H3)", "setting": "[2]", "value": 4.67},
      {"measurement": "d(O2,N2)", "setting": "[2]", "value": 2.86},
      {"measurement": "a(CA1, O1, O2)", "setting": "Table A6-1 pharmacophore angle", "value": 107.55},
      {"measurement": "a(O1, O2, H4)", "setting": "Table A6-1 pharmacophore angle", "value": 113.36},
      {"measurement": "a(N1, CA1, O1) b)", "setting": "Table A6-1 pharmacophore angle, Methyl-amino-pyridine compounds", "value": 174.22},
      {"measurement": "a(O1, O2, H3)", "setting": "Table A6-2 pharmacophore angle", "value": 145.74},
      {"measurement": "a(O1, O2, N2)", "setting": "Table A6-2 pharmacophore angle", "value": 133.10},
      {"measurement": "a(O2, N2, CA2)", "setting": "Table A6-2 pharmacophore angle", "value": 153.46},
      {"measurement": "Pharmacophore torsion angle a(H4, O1, O2, H3)", "setting": "[3]", "value": 47.32},
      {"measurement": "Pharmacophore torsion angle a(H4, O1, O2, N2)", "setting": "[3]", "value": 126.25},
      {"measurement": "Pharmacophore torsion angle a(N1, CA1, O1, H4)", "setting": "[3]", "value": 48.80},
      {"measurement": "Pharmacophore torsion angle a(O1, H4, O2, CA1)", "setting": "[3]", "value": "−94.30"},
      {"measurement": "Pharmacophore torsion angle a(O1, O2, N2, CA2)", "setting": "[4]", "value": 131.44},
      {"measurement": "Pharmacophore protein distance to MET_658 (first MET_658 column)", "value": 2.59},
      {"measurement": "Pharmacophore protein distance to MET_658 (second MET_658 column)", "value": 3.37},
      {"measurement": "Pharmacophore protein distance to GLY_528", "value": 3.72},
      {"measurement": "Pharmacophore protein distance to PHE_529", "value": 3.20},
      {"measurement": "Pharmacophore protein distance to PRO_608", "value": 3.12},
      {"measurement": "Pharmacophore protein distance to SER_611", "value": 2.21},
      {"measurement": "Pharmacophore protein distance to TRP_655", "value": 3.60}
    ]}
  ]
}
